Laboratory results as given in patent US20220380319A1 (Bial - R&D Investments, S.A., priority 2019, published 2022).
Converted amounts (≈) assume the structure as drawn.

Experiments:
acid ceramidase = target: T1, acid ceramidase (Homo sapiens, UniProt Q13510); experiment: Acid ceramidase inhibition, biochemical fluorescent assay with cell lysates overexpressing acid ceramidase, substrate Rbm14-12; conditions: substrate Rbm14-12 6.3 μM
T1 construct: Cell lysates overexpressing acid ceramidase were used as the enzyme source; expressed in transfected cells
T1 sequence (Q13510 22-395): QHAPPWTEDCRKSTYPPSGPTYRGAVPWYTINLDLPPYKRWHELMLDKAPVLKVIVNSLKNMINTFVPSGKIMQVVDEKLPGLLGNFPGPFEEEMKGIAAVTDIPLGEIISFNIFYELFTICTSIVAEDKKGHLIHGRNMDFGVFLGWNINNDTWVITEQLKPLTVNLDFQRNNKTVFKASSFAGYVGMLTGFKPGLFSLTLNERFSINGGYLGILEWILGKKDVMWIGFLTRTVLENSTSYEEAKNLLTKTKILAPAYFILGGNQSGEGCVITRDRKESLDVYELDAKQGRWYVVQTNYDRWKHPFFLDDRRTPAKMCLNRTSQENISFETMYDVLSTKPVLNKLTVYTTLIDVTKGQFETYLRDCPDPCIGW
How it was run: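 IC50 derived by four-parameter fitting of fluorescence (ex360 nm, em446 nm) produced after 1 hr in methanol/NaIO4/glycine stop buffer, pH 10.6. Reaction: 6.3 μM Rbm14-12, 1 hr RT, following 1 hr RT compound preincubation with 10 μg overexpressing-cell lysate protein in pH 4.5 NaAC/NaCl buffer.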

physchem = conditions: water
[1] = Compound solubility in water
[2] = pH 4.5, 1 hr preincubation at RT

| solubility [1] | IC50 (acid ceramidase; [2]) | SMILES | IC50 (acid ceramidase; pH 4.5) | solubility (physchem) |
| --- | --- | --- | --- | --- |
|  |  | CC(C)CCNC(=O)n1cnc2c(N3CC3C(F)(F)F)cccc21 (stereo not shown) [Example 164, N-iso-Pentyl-4-(2-(trifluoromethyl)-aziridin-1-yl)-1H-benzo[d]imidazole-1-carboxamide] | < 200 nM | 2 µg/mL (≈ 5.88 µM) |
|  |  | O=C(NCCCc1ccccc1)n1cnc2c(N3CC3F)cccc21 (stereo not shown) [Example 274, 4-(2-Fluoroaziridin-1-yl)-N-(3-phenylpropyl)-1H-benzo[d]imidazole-1-carboxamide] | < 200 nM | 17 µg/mL (≈ 50.2 µM) |
|  |  | CC(C)C#CCNC(=O)n1cnc2c(N3CC3C(F)(F)F)cccc21 (stereo not shown) [Example 308, N-(4-Methylpent-2-yn-1-yl)-4-(2-(trifluoromethyl)-aziridin-1-yl)-1H-benzo[d]imidazole-1-carboxamide] | < 200 nM | 1 µg/mL (≈ 2.85 µM) |
|  |  | O=C(NCCCc1ccccc1)n1cnc2c(N3CC3C(F)(F)F)cccc21 (stereo not shown) [Example 242, N-(3-phenylpropyl)-4-(2-(trifluoromethyl)aziridin-1-yl)-1H-benzo[d]imidazole-1-carboxamide] | < 200 nM | 1 µg/mL (≈ 2.57 µM) |
| 4 µg/mL (≈ 9.29 µM) |  | COc1nc2ccc(N3CCOCC3)cc2n1C(=O)NCCCc1ccc(F)cc1F [Example 224a, N-(3-(2,4-Difluorophenyl)propyl)-2-methoxy-6-morpholino-1H-benzo[d]imidazole-1-carboxamide] | < 200 nM |  |
| 23.1 µg/mL (≈ 58.2 µM) | < 200 nM | CN1CCC(c2cc3ncn(C(=O)NCCc4ccccc4)c3cc2Cl)CC1 [Example 11b, 6-Chloro-5-(1-methylpiperidin-4-yl)-N-phenethyl-1H-benzo[d]imidazole-1-carboxamide] |  |  |
| 10 µg/mL (≈ 27.5 µM) | < 200 nM | CC(C)CNC(=O)n1cnc2c(C(F)(F)F)c(-c3cncnc3)ccc21 [Example 76, N-iso-Butyl-5-(pyrimidin-5-yl)-4-(trifluoromethyl)-1H-benzo[d]imidazole-1-carboxamide] |  |  |
| 2.6 µg/mL (≈ 9.18 µM) | < 200 nM | O=C(NCCc1ccccc1)n1cnc2cc(F)ccc21 [Example 63, 5-Fluoro-N-phenethyl-1H-benzo[d]imidazole-1-carboxamide] |  |  |
| 20 µg/mL (≈ 55.1 µM) | 200 to 1000 nM | CC(C)CCNC(=O)n1cnc2c(C3CCN(C)CC3)cc(Cl)cc21 [Example 112b] |  |  |
| 26 µg/mL (≈ 72.7 µM) |  | CC(=O)N1CCN(c2cccc3c2ncn3C(=O)NCCC(C)C)CC1 [Example 203, 4-(4-Acetylpiperazin-1-yl)-N-isopentyl-1H-benzo[d]imidazole-1-carboxamide] | < 200 nM |  |
| 25 µg/mL (≈ 60.5 µM) |  | COc1nc2ccc(N3CCOCC3)cc2n1C(=O)NCCCc1ccc(F)nc1 [Example 232a, N-(3-(6-Fluoropyridin-3-yl)propyl)-2-methoxy-6-morpholino-1H-benzo[d]imidazole-1-carboxamide] | > 1000 nM |  |
| 36.1 µg/mL (≈ 90.6 µM) | 200 to 1000 nM | CCCCNC(=O)n1cnc2cc(N3CCC(N4CCN(C)CC4)CC3)ccc21 [Example 102b, N-butyl-5-(4-(4-methylpiperazin-1-yl)piperidin-1-yl)-1H-benzo[d]imidazole-1-carboxamide] |  |  |
| 5.4 µg/mL (≈ 15.7 µM) | < 200 nM | O=C(NCCc1ccccc1)n1cnc2cc(-c3ncccn3)ccc21 [Example 9, N-Phenethyl-5-(pyrimidin-2-yl)-1H-benzo[d]imidazole-1-carboxamide] |  |  |
| 35 µg/mL (≈ 87.2 µM) |  | COc1nc2ccc(N3CCOCC3)cc2n1C(=O)NCCCc1nccs1 [Example 196, 2-Methoxy-6-morpholino-N-(3-(thiazol-2-yl)propyl)-1H-benzo[d]imidazole-1-carboxamide] | 200 to 1000 nM |  |
| 0.04 µg/mL (≈ 0.0996 µM) | < 200 nM | COc1nc2cc(-c3cccnc3)cnc2n1C(=O)NCCCCc1ccccc1 [Example 122, 2-Methoxy-N-(4-phenylbutyl)-6-(pyridin-3-yl)-3H-imidazo[4,5-b]pyridine-3-carboxamide] |  |  |
| 17 µg/mL (≈ 42.1 µM) |  | O=C(NCCCc1ccccc1)n1cnc2c(N3CCN4CCCC4C3)cccc21 (stereo not shown) [Example 239, 4-(Hexahydropyrrolo[1,2-a]pyrazin-2(1H)-yl)-N-(3-phenylpropyl)-1H-benzo[d]imidazole-1-carboxamide] | < 200 nM |  |

| SMILES | solubility [1] | IC50 (acid ceramidase; [2]) | IC50 (acid ceramidase; pH 4.5) | solubility (physchem) |
| --- | --- | --- | --- | --- |
| CC(C)CCNC(=O)n1cnc2c(N3[C@@H]4CC[C@H]3COC4)cccc21 [Example 220, 4-((1R,5S)-3-Oxa-8-azabicyclo[3.2.1]octan-8-yl)-N-isopentyl-1H-benzo[d]imidazole-1-carboxamide] | 4 µg/mL (≈ 11.7 µM) |  | 200 to 1000 nM |  |
